This passage reports IC50 results from patent US20230278981A1, “DICHLOROPHENOL HSD17B13 INHIBITORS AND USES THEREOF” (INIPHARM, INC., priority 2020, published 2023).

For the assay, the target named is HSD17B13 (Homo sapiens (Human), UniProt Q7Z5P4). The assay is described as follows: LC/MS estrone detection assay: conversion of estradiol to estrone by HSD17B13. As to conditions: 4 μM estradiol, 6 mM NAD+, 30 nM HSD17B13 enzyme (E. coli expressed His-tagged), 2 hours at 26.5° C. It counts as biochemical. An outline of the steps: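 His-tagged E. coli-expressed HSD17B13 (30 nM) with 4 μM estradiol and 6 mM NAD+ in 1 M potassium phosphate pH 7.4, 0.5% DMSO, 2 h at 26.5° C. Estrone and estradiol quantified by LC-MS/MS after MeCN quench with D4-estrone internal standard; activity as % of uninhibited enzyme, IC50 by four-parameter fit, duplicates.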
Sequence of HSD17B13 (Q7Z5P4 20-300): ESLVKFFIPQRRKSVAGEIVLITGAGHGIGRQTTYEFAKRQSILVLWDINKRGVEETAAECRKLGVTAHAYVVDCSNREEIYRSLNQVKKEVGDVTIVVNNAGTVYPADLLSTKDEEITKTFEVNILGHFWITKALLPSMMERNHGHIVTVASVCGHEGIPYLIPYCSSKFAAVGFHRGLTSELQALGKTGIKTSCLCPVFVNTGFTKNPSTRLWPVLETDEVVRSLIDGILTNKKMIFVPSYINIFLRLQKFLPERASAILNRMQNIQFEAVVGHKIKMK

For `Cn1c(=O)n(Cc2ccccc2OC(F)(F)F)c(=O)c2c(NC(=O)c3cc(Cl)c(O)c(Cl)n3)cccc21` [Example 113, 4,6-dichloro-5-hydroxy-N-(1-methyl-2,4-dioxo-3-(2-(trifluoromethoxy)benzyl)-1,2,3,4-tetrahydroquinazolin-5-yl)picolinamide], the IC50 (as a rule, the midpoint of a concentration-inhibition curve) lay within 100 to 500 nM.

Consider `Cc1nsc(NC(=O)c2cc(Cl)c(O)c(Cl)n2)c1C(=O)NCc1ccccc1F` [Example 114, 5-(4,6-dichloro-5-hydroxypicolinamido)-N-(2-fluorobenzyl)-3-methylisothiazole-4-carboxamide], for which the IC50 was 100 to 500 nM.

`Cc1nsc(NC(=O)c2cc(Cl)c(O)c(Cl)n2)c1C(=O)N[C@@H](C)c1ccccc1F` [Example 115, (S)-5-(4,6-dichloro-5-hydroxypicolinamido)-N-(1-(2-fluorophenyl)ethyl)-3-methylisothiazole-4-carboxamide] gave a half-inhibitory concentration (IC50) of 100 to 500 nM.

With `O=C(Nc1cccc2nc(C(F)(F)F)n(C3CC3c3ccccc3)c(=O)c12)c1cc(Cl)c(O)c(Cl)c1` (stereo not shown) [Example 116, 3,5-dichloro-4-hydroxy-N-(4-oxo-3-(2-phenylcyclopropyl)-2-(trifluoromethyl)-3,4-dihydroquinazolin-5-yl)benzamide], the half-maximal inhibitory concentration (IC50) fell in the range of 100 to 500 nM.

`Cn1nc(Cn2cnc3cccc(NC(=O)c4cc(Cl)c(O)c(Cl)c4)c3c2=O)c2ccccc21` [Example 117, 3,5-dichloro-4-hydroxy-N-(3-((1-methyl-1H-indazol-3-yl)methyl)-4-oxo-3,4-dihydroquinazolin-5-yl)benzamide] registered an IC50 of at most 100 nM.

`Cn1nc(NC(=O)c2cc(Cl)c(O)c(Cl)c2)c2c(=O)n(Cc3ccccc3OC(F)(F)F)cnc21` [Example 118, 3,5-dichloro-4-hydroxy-N-(1-methyl-4-oxo-5-(2-(trifluoromethoxy)benzyl)-4,5-dihydro-1H-pyrazolo[3,4-d]pyrimidin-3-yl)benzamide] returned an IC50 of 500 to 1000 nM.

`Cn1nc(NC(=O)c2cc(Cl)c(O)c(Cl)n2)c2c(=O)n(Cc3ccccc3OC(F)(F)F)cnc21` [Example 119, 4,6-dichloro-5-hydroxy-N-(1-methyl-4-oxo-5-(2-(trifluoromethoxy)benzyl)-4,5-dihydro-1H-pyrazolo[3,4-d]pyrimidin-3-yl)picolinamide] had an IC50 of 100 to 500 nM.

As for `O=C(NCc1ccccc1OC(F)(F)F)C1CCCCN1C(=O)c1cc(Cl)c(O)c(Cl)n1` (stereo not shown) [Example 120, 1-(4,6-dichloro-5-hydroxypicolinoyl)-N-(2-(trifluoromethoxy)benzyl) piperidine-2-carboxamide], the IC50 fell in the range of 1000 to 10000 nM.

Take `O=C(Nc1cccc2ncn([C@H]3CC[C@@H]3c3ccccc3)c(=O)c12)c1cc(Cl)c(O)c(Cl)c1` [Example 121, 3,5-dichloro-4-hydroxy-N-(4-oxo-3-((1S,2R)-2-phenylcyclobutyl)-3,4-dihydroquinazolin-5-yl)benzamide]: the IC50 was 100 to 500 nM.

The molecule `O=C(Nc1cccc2ncn(Cc3cccnc3Cl)c(=O)c12)c1cc(Cl)c(O)c(Cl)c1` [Example 122, 3,5-dichloro-N-(3-((2-chloropyridin-3-yl)methyl)-4-oxo-3,4-dihydroquinazolin-5-yl)-4-hydroxybenzamide] had an IC50 of 100 to 500 nM.

`O=C(Nc1cccc2ncn(C(CN3CCOCC3)c3ccccc3)c(=O)c12)c1cc(Cl)c(O)c(Cl)c1` (stereo not shown) [Example 123, 3,5-dichloro-4-hydroxy-N-(3-(2-morpholino-1-phenylethyl)-4-oxo-3,4-dihydroquinazolin-5-yl)benzamide] gave an IC50 of 100 to 500 nM.

Molecule `O=C(Nc1nccc2ncn(Cc3ccccc3OC(F)(F)F)c(=O)c12)c1cc(Cl)c(O)c(Cl)c1` [Example 124, 3,5-dichloro-4-hydroxy-N-(4-oxo-3-(2-(trifluoromethoxy)benzyl)-3,4-dihydropyrido[4,3-d]pyrimidin-5-yl)benzamide] returned an IC50 of 1000 to 10000 nM.

With `O=C(Nc1sc(C(F)(F)F)nc1C(=O)NCc1ccccc1OC(F)(F)F)c1cc(Cl)c(O)c(Cl)c1` [Example 125, 5-(3,5-dichloro-4-hydroxybenzamido)-N-(2-(trifluoromethoxy)benzyl)-2-(trifluoromethyl)thiazole-4-carboxamide], the IC50 lay within 100 to 500 nM.

As to `Cc1nsc(NC(=O)c2cc(Cl)c(O)c(Cl)c2)c1C(=O)N[C@@H](C)c1ccccc1F` [Example 126, (S)-5-(3,5-dichloro-4-hydroxybenzamido)-N-(1-(2-fluorophenyl)ethyl)-3-methylisothiazole-4-carboxamide], the IC50 was at most 100 nM.

In the case of `O=C(NCc1ccccc1OC(F)(F)F)C1CCCN1C(=O)c1cc(Cl)c(O)c(Cl)n1` (stereo not shown) [Example 127, 1-(4,6-dichloro-5-hydroxypicolinoyl)-N-(2-(trifluoromethoxy)benzyl) pyrrolidine-2-carboxamide], the IC50 was over 10000 nM.

In turn, `O=C(NCc1ccccc1OC(F)(F)F)C1CCCN1C(=O)c1cc(Cl)c(O)c(Cl)c1` (stereo not shown) [Example 128, 1-(3,5-dichloro-4-hydroxybenzoyl)-N-(2-(trifluoromethoxy)benzyl) pyrrolidine-2-carboxamide] showed an IC50 of over 10000 nM.

In turn, `O=C(Nc1cccc2ncn(Cc3cccnc3Cl)c(=O)c12)c1cc(Cl)c(O)c(Cl)n1` [Example 129, 4,6-dichloro-N-{3-[(2-chloropyridin-3-yl)methyl]-4. oxo-3,4-dihydroquinazolin-5-yl}-5-hydroxypyridine-2-carboxamide] had an IC50 of 100 to 500 nM.

`O=C(Nc1cccc2ncn(Cc3ncccc3F)c(=O)c12)c1cc(Cl)c(O)c(Cl)c1` [Example 130, 3,5-dichloro-N-{3-[(3-fluoropyridin-2-yl)methyl]-4-oxo-3,4-dihydroquinazolin-5-yl}-4-hydroxybenzamide] had an IC50 of 100 to 500 nM.

The molecule `Cc1ccc2ncn(Cc3ccccc3OC(F)(F)F)c(=O)c2c1NC(=O)c1cc(Cl)c(O)c(Cl)n1` [Example 131, 4,6-dichloro-5-hydroxy-N-(6-methyl-4-oxo-3-{[2-(trifluoromethoxy)phenyl]methyl}-3,4-dihydroquinazolin-5-yl)pyridine-2-carboxamide] gave an IC50 of 100 to 500 nM.

In the case of `O=C(Nc1ccc(F)c2ncn(Cc3ccccc3OC(F)(F)F)c(=O)c12)c1cc(Cl)c(O)c(Cl)c1` [Example 132, 3,5-dichloro-N-(8-fluoro-4-oxo-3-{[2-(trifluoromethoxy)phenyl]methyl}-3,4-dihydroquinazolin-5-yl)-4-hydroxybenzamide], the IC50 is at most 100 nM.

The molecule `O=C(Nc1ccc(F)c2ncn(Cc3ccccc3OC(F)(F)F)c(=O)c12)c1cc(Cl)c(O)c(Cl)n1` [Example 133, 4,6-dichloro-N-(8-fluoro-4-oxo-3-{[2-(trifluoromethoxy)phenyl]methyl}-3,4-dihydroquinazolin-5-yl)-5-hydroxypyridine-2-carboxamide] yielded an IC50 of 100 to 500 nM.

As to `O=C(NC1CCCC1C(=O)NCc1ccccc1OC(F)(F)F)c1cc(Cl)c(O)c(Cl)n1` (stereo not shown) [Example 134, 4,6-dichloro-5-hydroxy-N-[2-({[2-(trifluoromethoxy)phenyl]methyl}carbamoyl)cyclopentyl] pyridine-2-carboxamide], the IC50 was in the range of 500 to 1000 nM.

In turn, `O=C(Nc1cccc2ncn(Cc3cccnc3F)c(=O)c12)c1cc(Cl)c(O)c(Cl)c1` [Example 137, 3,5-dichloro-N-{3-[(2-fluoropyridin-3-yl)methyl]-4-oxo-3,4-dihydroquinazolin-5-yl}-4-hydroxybenzamide] displayed an IC50 of 100 to 500 nM.

`O=C(Nc1cccc2ncn(Cc3cccnc3F)c(=O)c12)c1cc(Cl)c(O)c(Cl)n1` [Example 138, 4,6-dichloro-N-{3-[(2-fluoropyridin-3-yl)methyl]-4-oxo-3,4-dihydroquinazolin-5-yl}-5-hydroxypyridine-2-carboxamide] registered an IC50 of 100 to 500 nM.

The molecule `O=C(Nc1cccc2ncn(Cc3ncccc3F)c(=O)c12)c1cc(Cl)c(O)c(Cl)n1` [Example 140, 4,6-dichloro-N-(3-((3-fluoropyridin-2-yl)methyl)-4-oxo-3,4-dihydroquinazolin-5-yl)-5-hydroxypicolinamide] showed an IC50 of 100 to 500 nM.

Molecule `Cc1ccc(NC(=O)c2cc(Cl)c(O)c(Cl)n2)c2c(=O)n(Cc3ccccc3OC(F)(F)F)c(C)nc12` [Example 141, 4,6-dichloro-N-(2,8-dimethyl-4-oxo-3-(2-(trifluoromethoxy)benzyl)-3,4-dihydroquinazolin-5-yl)-5-hydroxypicolinamide] showed an IC50 of at most 100 nM.

Consider `Cc1ccc(NC(=O)c2cc(Cl)c(O)c(Cl)c2)c2c(=O)n(Cc3cccnc3C(F)(F)F)c(C)nc12` [Example 142, 3,5-dichloro-N-(2,8-dimethyl-4-oxo-3-((2-(trifluoromethyl)pyridin-3-yl)methyl)-3,4-dihydroquinazolin-5-yl)-4-hydroxybenzamide], for which the IC50 is 100 to 500 nM.

Take `O=C(Nc1cccc2ncn(Cc3ncccc3Cl)c(=O)c12)c1cc(Cl)c(O)c(Cl)c1` [Example 143, 3,5-dichloro-N-(3-((3-chloropyridin-2-yl)methyl)-4-oxo-3,4-dihydroquinazolin-5-yl)-4-hydroxybenzamide]: the IC50 is at most 100 nM.

For the molecule `O=C(N[C@H]1CCCC[C@@H]1C(=O)NCc1ccccc1OC(F)(F)F)c1cc(Cl)c(O)c(Cl)n1` [Example 144, 4,6-dichloro-5-hydroxy-N-((1S, 2S)-2-((2-(trifluoromethoxy)benzyl)carbamoyl)cyclohexyl)picolinamide], the IC50 is over 10000 nM.

In turn, `O=C(N[C@@H]1CCCC[C@H]1C(=O)NCc1ccccc1OC(F)(F)F)c1cc(Cl)c(O)c(Cl)n1` [Example 145, 4,6-dichloro-5-hydroxy-N-((1R, 2R)-2-((2-(trifluoromethoxy)benzyl)carbamoyl)cyclohexyl)picolinamide] had an IC50 of 1000 to 10000 nM.

Turning to `Cc1ccc(NC(=O)c2cc(Cl)c(O)c(Cl)c2)c2c(=O)n(Cc3ncccc3C(F)(F)F)c(C)nc12` [Example 146, 3,5-dichloro-N-(2,8-dimethyl-4-oxo-3-((3-(trifluoromethyl)pyridin-2-yl)methyl)-3,4-dihydroquinazolin-5-yl)-4-hydroxybenzamide], the IC50 is at most 100 nM.
